From ChEMBL document CHEMBL1275569, “Plasmid-mediated 16S rRNA methylases among extended-spectrum beta-lactamase-producing Enterobacteriaceae isolates” (2008) come the findings set out here.

One test deals with Klebsiella pneumoniae. Nature of the test: Antimicrobial activity against armA positive Klebsiella pneumoniae DU producing beta lactamase CTX-M-3 by Etest method. The format is functional.
Test [1] has as its system Escherichia coli. Nature of the test: Antimicrobial activity against Escherichia coli TOP10 by Etest method. The test is classed as functional.
For test [2], the system named is Escherichia coli. In words: Antimicrobial activity against Escherichia coli TOP10 harboring plasmid VOG2 expressing CTX-M-14 and AAC(6 )-Ib gene by Etest method. The test is classed as functional.
Test [3] deals with Escherichia coli. Nature of the test: Antimicrobial activity against armA positive Escherichia coli TOP10 producing beta lactamase CTX-M-3 with plasmid DU by Etest method. The test is classed as functional.
The test system of test [4] is Escherichia coli. Nature of the test: Antimicrobial activity against Escherichia coli TOP10 harboring plasmid VOG1 expressing RmtB, TEM-1, and QepA gene by Etest method. The test is classed as functional.
Test [5] concerns Escherichia coli. In words: Antimicrobial activity against armA positive Escherichia coli MEZ producing beta lactamase CTX-M-3 by Etest method. The test is classed as functional.
The subject of test [6] is Escherichia coli. In words: Antimicrobial activity against beta lactamase CTX-M-14 producing Escherichia coli TOP10 harboring plasmid COP2 by Etest method. The format is functional.
The subject of test [7] is Escherichia coli. In words: Antimicrobial activity against rmtB positive Escherichia coli VOG producing beta lactamase CTX-M-14 by Etest method. The test is classed as functional.
Test [8] deals with Escherichia coli. Nature of the test: Antimicrobial activity against armA positive Escherichia coli TOP10 producing beta lactamase CTX-M-3 with plasmid MEZ by Etest method. The format is functional.
The test system of the next test is Enterobacter cloacae. Nature of the test: Antimicrobial activity against armA positive Enterobacter cloacae BEH producing beta lactamase CTX-M-3 by Etest method. The format is functional.
The subject of test [9] is Escherichia coli. In words: Antimicrobial activity against armA positive Escherichia coli TOP10 producing beta lactamase CTX-M-3 with plasmid BEH by Etest method. The test is classed as functional.
Test [10] concerns Escherichia coli. Nature of the test: Antimicrobial activity against armA positive Escherichia coli TOP10 harboring plasmid COP1 by Etest method. The format is functional.
The test system of test [11] is Escherichia coli. Nature of the test: Antimicrobial activity against armA positive Escherichia coli COP producing beta lactamase CTX-M-14 by Etest method.

Converted amounts (≈) assume the structure as drawn.

On to GENTAMICIN, for which the MIC in the test on Klebsiella pneumoniae is above 256 µg/mL; with Escherichia coli [1], 0.25 µg/mL; with Escherichia coli [2], 0.25 µg/mL; with Escherichia coli [3], above 256 µg/mL; against Escherichia coli [4], above 256 µg/mL; in the test on Escherichia coli [5], above 256 µg/mL. Besides, the MIC was 0.125 µg/mL with Escherichia coli [6]; above 256 µg/mL against Escherichia coli [7]; above 256 µg/mL in the test on Escherichia coli [8]; above 256 µg/mL against Enterobacter cloacae; above 256 µg/mL in the test on Escherichia coli [9]; above 256 µg/mL with Escherichia coli [10].

Turning to `CCn1cc(C(=O)O)c(=O)c2cc(F)c(N3CCNCC3)cc21` [NORFLOXACIN], the MIC against Escherichia coli [11] was above 256 µg/mL; against Klebsiella pneumoniae, 0.75 µg/mL (≈ 2.35 µM); in the test with Escherichia coli [1], below 0.016 µg/mL; in the test with Escherichia coli [2], below 0.016 µg/mL; against Escherichia coli [3], 0.016 µg/mL (≈ 0.0501 µM); against Escherichia coli [4], 0.032 µg/mL (≈ 0.1 µM). The MIC against Escherichia coli [5] is above 256 µg/mL; in the test with Escherichia coli [6], below 0.016 µg/mL; against Escherichia coli [7], above 256 µg/mL; in the test on Escherichia coli [8] it was 0.016 µg/mL (≈ 0.0501 µM); in the test on Enterobacter cloacae it was 1 µg/mL (≈ 3.13 µM); in the test with Escherichia coli [9], 0.016 µg/mL (≈ 0.0501 µM). In addition, the minimal inhibitory concentration (MIC) in the test on Escherichia coli [10] was below 0.016 µg/mL.

Regarding `CO/N=C(\C(=O)N[C@@H]1C(=O)N2C(C(=O)O)=C(COC(C)=O)CS[C@H]12)c1csc(N)n1` [CEFOTAXIME], the MIC in the test with Escherichia coli [11] is above 32 µg/mL; against Klebsiella pneumoniae, above 32 µg/mL; in the test with Escherichia coli [1], 0.047 µg/mL (≈ 0.103 µM); in the test with Escherichia coli [3], above 32 µg/mL; against Escherichia coli [4] it was 0.047 µg/mL (≈ 0.103 µM); with Escherichia coli [5], above 32 µg/mL. Besides, the minimal inhibitory concentration (MIC) against Escherichia coli [6] is 8 µg/mL (≈ 17.6 µM); against Escherichia coli [7] it was above 32 µg/mL; against Escherichia coli [8], above 32 µg/mL; with Enterobacter cloacae, above 32 µg/mL; in the test with Escherichia coli [9] it was above 32 µg/mL; against Escherichia coli [10], 0.047 µg/mL (≈ 0.103 µM).

In the case of `NC[C@H]1O[C@H](O[C@H]2[C@H](O)[C@@H](O[C@H]3O[C@H](CO)[C@@H](O)[C@H](N)[C@H]3O)[C@H](N)C[C@@H]2N)[C@H](N)C[C@@H]1O` [TOBRAMYCIN], the MIC in the test with Escherichia coli [11] is above 256 µg/mL; in the test on Klebsiella pneumoniae, above 256 µg/mL; in the test with Escherichia coli [1] it was 0.38 µg/mL (≈ 0.813 µM); in the test on Escherichia coli [2], 3 µg/mL (≈ 6.42 µM); with Escherichia coli [3], above 256 µg/mL; in the test with Escherichia coli [5], above 256 µg/mL. In addition, the MIC was 0.19 µg/mL (≈ 0.406 µM) against Escherichia coli [6]; above 256 µg/mL with Escherichia coli [7]; above 256 µg/mL against Escherichia coli [8]; above 256 µg/mL with Enterobacter cloacae; above 256 µg/mL in the test with Escherichia coli [9].

Consider `CC(C)(O/N=C(\C(=O)N[C@@H]1C(=O)N2C(C(=O)[O-])=C(C[n+]3ccccc3)CS[C@H]12)c1csc(N)n1)C(=O)O` [CEFTAZIDIME], for which the minimum inhibitory concentration (MIC) against Escherichia coli [11] turned out to be 1 µg/mL (≈ 1.83 µM); with Klebsiella pneumoniae, 2 µg/mL (≈ 3.66 µM); with Escherichia coli [1] it was 0.38 µg/mL (≈ 0.695 µM); against Escherichia coli [2], 2 µg/mL (≈ 3.66 µM); in the test with Escherichia coli [3], 2 µg/mL (≈ 3.66 µM); in the test with Escherichia coli [4], 0.38 µg/mL (≈ 0.695 µM). Moreover, the minimal inhibitory concentration (MIC) against Escherichia coli [5] is 3 µg/mL (≈ 5.49 µM); in the test on Escherichia coli [6] it was 1 µg/mL (≈ 1.83 µM); in the test with Escherichia coli [7], 6 µg/mL (≈ 11 µM); in the test on Escherichia coli [8], 3 µg/mL (≈ 5.49 µM); with Enterobacter cloacae, 16 µg/mL (≈ 29.3 µM); against Escherichia coli [9], 8 µg/mL (≈ 14.6 µM). In addition, the MIC against Escherichia coli [10] turned out to be 0.38 µg/mL (≈ 0.695 µM).

In the case of `C[C@@H](O)[C@H]1C(=O)N2C(C(=O)O)=C(SCCNC=N)C[C@H]12` [IMIPENEM ANHYDROUS], the minimum inhibitory concentration (MIC) with Escherichia coli [11], in the test on Klebsiella pneumoniae, in the test on Escherichia coli [1], in the test on Escherichia coli [2], in the test on Escherichia coli [3] and in the test with Escherichia coli [4] was 0.19 µg/mL (≈ 0.635 µM) each time. For the same compound, the MIC in the test with Escherichia coli [5], against Escherichia coli [6], against Escherichia coli [7], against Escherichia coli [8], with Enterobacter cloacae and against Escherichia coli [9] was 0.19 µg/mL (≈ 0.635 µM) throughout. Moreover, 0.19 µg/mL (≈ 0.635 µM) was the least that counted as inhibitory with Escherichia coli [10] (MIC).

On to `CCN[C@@H]1C[C@H](N)[C@@H](O[C@H]2OC(CN)=CC[C@H]2N)[C@H](O)[C@H]1O[C@H]1OC[C@](C)(O)[C@H](NC)[C@H]1O` [NETILMICIN], for which the minimum inhibitory concentration (MIC) in the test with Escherichia coli [11] was above 256 µg/mL; with Klebsiella pneumoniae, above 256 µg/mL; against Escherichia coli [1], 0.25 µg/mL (≈ 0.526 µM); against Escherichia coli [2], 1.5 µg/mL (≈ 3.15 µM); against Escherichia coli [3], above 256 µg/mL; with Escherichia coli [5], above 256 µg/mL. The minimal inhibitory concentration (MIC) is 0.125 µg/mL (≈ 0.263 µM) with Escherichia coli [6]; above 256 µg/mL in the test with Escherichia coli [7]; above 256 µg/mL in the test with Escherichia coli [8]; above 256 µg/mL against Enterobacter cloacae; above 256 µg/mL with Escherichia coli [9].

Consider `O=C(O)c1cn(C2CC2)c2cc(N3CCNCC3)c(F)cc2c1=O` [CIPROFLOXACIN], for which the minimal inhibitory concentration (MIC) with Escherichia coli [11] is above 32 µg/mL; in the test with Klebsiella pneumoniae it was 0.125 µg/mL (≈ 0.377 µM); against Escherichia coli [1], below 0.002 µg/mL; with Escherichia coli [3] it was below 0.002 µg/mL; against Escherichia coli [5], above 32 µg/mL; with Escherichia coli [7], above 32 µg/mL. Besides, the minimum inhibitory concentration (MIC) with Escherichia coli [8] and against Escherichia coli [9] was below 0.002 µg/mL throughout.

Turning to `NCC[C@H](O)C(=O)N[C@@H]1C[C@H](N)[C@@H](O[C@H]2O[C@H](CN)[C@@H](O)[C@H](O)[C@H]2O)[C@H](O)[C@H]1O[C@H]1O[C@H](CO)[C@@H](O)[C@H](N)[C@H]1O` [AMIKACIN], the minimal inhibitory concentration (MIC) is above 256 µg/mL with Escherichia coli [11]; above 256 µg/mL in the test with Klebsiella pneumoniae; 1 µg/mL (≈ 1.71 µM) against Escherichia coli [1]; 1.5 µg/mL (≈ 2.56 µM) in the test on Escherichia coli [2]; above 256 µg/mL against Escherichia coli [3]; above 256 µg/mL with Escherichia coli [5]. Moreover, the minimal inhibitory concentration (MIC) was 1 µg/mL (≈ 1.71 µM) against Escherichia coli [6]; above 256 µg/mL against Escherichia coli [7]; above 256 µg/mL in the test with Escherichia coli [8]; above 256 µg/mL against Enterobacter cloacae; above 256 µg/mL in the test with Escherichia coli [9].
